In one assay the target is T1, human 5-HT2C receptor (Homo sapiens, UniProt P28335).
T1 sequence (P28335 33-458): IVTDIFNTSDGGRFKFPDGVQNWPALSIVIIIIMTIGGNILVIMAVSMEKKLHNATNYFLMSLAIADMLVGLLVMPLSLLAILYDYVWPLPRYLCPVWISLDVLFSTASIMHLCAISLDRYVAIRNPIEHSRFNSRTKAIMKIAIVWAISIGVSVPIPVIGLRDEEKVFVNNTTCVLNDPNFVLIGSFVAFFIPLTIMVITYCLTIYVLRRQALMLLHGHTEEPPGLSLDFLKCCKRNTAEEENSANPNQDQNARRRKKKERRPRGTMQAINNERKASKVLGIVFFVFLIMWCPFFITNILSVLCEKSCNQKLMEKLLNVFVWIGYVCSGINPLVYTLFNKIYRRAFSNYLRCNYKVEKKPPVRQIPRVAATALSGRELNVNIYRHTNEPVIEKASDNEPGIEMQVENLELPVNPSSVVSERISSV
Description: 5-HT2C receptor-stimulated calcium mobilization (FLIPR) in CHO cells.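 On all read-outs here: Fluo-3-AM fluorescence read on FLIPR every 1 s, agonist added after 10 baseline reads, response taken as peak minus lowest raw fluorescence count.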 The format is cell-based. The note with it: for Emax: CHO, read-out: 5-HT2C Function Emax (%); for Emax / 5-HT2C Function Emax (%): percentage of the response observed with a maximally effective concentration of 5-HT; for pEC50: calcium mobilization, CHO cells stably expressing human 5-HT2C, read-out: 5-HT2C Function EC50.

Assay [1] concerns the target T2, human 5-hydroxytryptamine-2C (h5-HT2C) receptor (Homo sapiens, UniProt P28335).
T2 construct: expressed in transfected cells; host or cells: CHO (Chinese Hamster Ovary) cells; membranes
T2 sequence (P28335 33-458): T1 sequence (P28335 33-458)
Description: [125I]DOI binding to membranes of CHO cells expressing the human 5-HT2C receptor. The note with it: [125I]DOI radioligand, CHO cell membranes, room temperature 60 min; read-out: 5-HT2C Affinity Ki.

SMILES strings stand for the structures. pEC50, pKi: −log10 of the molar value.

By Emax is commonly meant the maximal effect, on the per cent scale that the assay sets. For orientation: pEC50 means the EC50 on a negative log10 scale, so that one unit is a factor of ten. In general, pKi refers to the negative decadic logarithm of the Ki, by convention in mol/L. Regarding `CNCC1Cc2cc(OC)cc(-c3ccc(F)cc3F)c2O1` (racemic) [Example 497, (±)-{[7-(2,4-difluorophenyl)-5-methoxy-2,3-dihydro-1-benzofuran-2-yl]methyl}methylamine], on human 5-HT2C receptor, the Emax stood at 70% and the pEC50 was 6.50. In assay [1], the pKi is 7.43.
As to `CNCC1Cc2cc(OC)cc(-c3cc(F)ccc3F)c2O1` (racemic) [Example 498, (±)-{[7-(2,5-difluorophenyl)-5-methoxy-2,3-dihydro-1-benzofuran-2-yl]methyl}methylamine], at human 5-HT2C receptor, the Emax came to 70% and the pEC50 is 6.49. In addition, the pKi in assay [1] was 7.46.
As for `CNCC1Cc2cc(OC)cc(-c3cc(Cl)ccc3Cl)c2O1` (racemic) [Example 499, (±)-{[7-(2,5-dichlorophenyl)-5-methoxy-2,3-dihydro-1-benzofuran-2-yl]methyl}methylamine], on human 5-HT2C receptor, the Emax was 90% and the pEC50 is 7.24. Also, the pKi in assay [1] is 8.44.
The matching figures for `CNCC1Cc2cc(OC)cc(-c3cc(C)ccc3C)c2O1` (racemic) [Example 500, (±)-{[7-(2,5-dimethylphenyl)-5-methoxy-2,3-dihydro-1-benzofuran-2-yl]methyl}methylamine]: 80%, 6.59 and 7.07.
For `CNCC1Cc2cc(OC)cc(-c3cc(OC)ccc3OC)c2O1` (racemic) [Example 501, (±)-{[7-(2,5-dimethoxyphenyl)-5-methoxy-2,3-dihydro-1-benzofuran-2-yl]methyl}methylamine], in that order: 70%, 7.15 and 7.35.
For the molecule `CNCC1Cc2cc(OC)cc(-c3c(C)cccc3C)c2O1` (racemic) [Example 504, (±)-{[7-(2,6-dimethylphenyl)-5-methoxy-2,3-dihydro-1-benzofuran-2-yl]methyl}methylamine], on human 5-HT2C receptor, the Emax was determined as 90% and the pEC50 was 7.57. The pKi in assay [1] was 8.92.
For `CNCC1Cc2cc(C(F)(F)F)cc(-c3ccccc3)c2O1` (racemic) [Example 518, (±)-{[N-methyl-1-[7-phenyl-5-(trifluoromethyl)-2,3-dihydro-1-benzofuran-2-yl]methanamine], in that order: 80%, 6.42 and 7.40.
For `CNCC1Cc2cc(C(F)(F)F)cc(-c3ccc(OC)cc3OC)c2O1` (racemic) [Example 526, (±)-N-methyl-1-[7-(2,4-dimethoxyphenyl)-5-(trifluoromethyl)-2,3-dihydro-1-benzofuran-2-yl]methanamine], in that order: 90%, 7.30 and 7.60.
For `COc1cc2c(c(-c3ccccc3OC)c1)OC(CCN)C2` (racemic) [Example 554, (±)-{2-[7-(2-methoxyphenyl)-5-methoxy-2,3-dihydro-1-benzofuran-2-yl]ethyl}amine], in that order: 70%, 8.70 and 7.39.
Regarding `CNCC1Cc2cccc(-c3c(Cl)cc(Cl)cc3Cl)c2O1` (racemic) [Example 555, (±)-{N-methyl-1-[(7-(2,4,6-trichlorophenyl)-2,3-dihydro-1-benzofuran-2-yl]methanamine], on human 5-HT2C receptor, the Emax stood at 80% and the pEC50 was 8.40. In addition, the pKi in assay [1] is 9.22.
With `NCC1Cc2cc(Cl)cc(-c3cccc(F)c3F)c2O1` (single isomer, unassigned) [Example 246, (±)-{[5-chloro-7-(2,3-difluorophenyl)-2,3-dihydro-1-benzofuran-2-yl]methyl}amine], at human 5-HT2C receptor, the pEC50 is 5.83. Further, the pKi in assay [1] was 7.64.
Regarding `NCC1Cc2c(cccc2-c2ccccc2)O1` (single isomer, unassigned; (+)) [Example 2, (+)-1-(4-phenyl-2,3-dihydro-1-benzofuran-2-yl)methanamine], on human 5-HT2C receptor, the Emax stood at 90% and the pEC50 is 7.21. For the same molecule, in assay [1], the pKi was 7.80.
The matching figures for `Cc1ccccc1-c1cccc2c1CC(CN)O2` (single isomer, unassigned; (+)) [Example 5, (+)-1-[4-(2-methylphenyl)-2,3-dihydro-1-benzofuran-2-yl]methanamine]: 90%, 6.68 and 8.05.
For `NCC1Cc2cccc(C3CCCC3)c2O1` (single isomer, unassigned; (+)) [Example 10, (+)-(7-cyclopentyl-2,3-dihydro-1-benzofuran-2-yl)methylamine], at human 5-HT2C receptor, the pEC50 is 6.75 and the “5-HT2C Function Emax (%)” value is on record as 60%. The pKi in assay [1] is 7.38.
As for `NCC1Cc2cccc(Cc3ccccc3)c2O1` (single isomer, unassigned; (+)) [Example 16, (+)-1-(7-benzyl-2,3-dihydro-1-benzofuran-2-yl)methanamine], at human 5-HT2C receptor, the Emax was found to be 65% and the pEC50 was 6.35. The pKi in assay [1] is 6.56.
`CC(C)c1cccc2c1OC(CN)C2` (single isomer, unassigned; (+)) [Example 20, (+)-(7-isopropyl-2,3-dihydro-1-benzofuran-2-yl)methylamine]: at human 5-HT2C receptor, the pEC50 is 6.75 and the “5-HT2C Function Emax (%)” value worked out at 70%. The pKi in assay [1] is 7.62.
The matching figures for `Cc1c(Cl)cc(C(C)C)c2c1CC(CN)O2` (single isomer, unassigned; (+)) [Example 23, (+)-1-(5-chloro-7-isopropyl-4-methyl-2,3-dihydro-1-benzofuran-2-yl)methanamine]: 7.14, 80% and 8.05.
The matching figures for `CC(C)(C)c1cccc2c1OC(CN)C2` (single isomer, unassigned; (+)) [Example 26, (+)-1-(7-tert-butyl-2,3-dihydro-1-benzofuran-2-yl)methanamine]: 7.10, 100% and 7.15.
The matching figures for `CC(C)(C)c1cc(Cl)cc2c1OC(CN)C2` (single isomer, unassigned; (+)) [Example 29, (+)-1-(7-tert-butyl-5-chloro-2,3-dihydro-1-benzofuran-2-yl)methanamine]: 6.64, 80% and 7.46.
As for `NCC1Cc2cccc(-c3ccccc3)c2O1` (single isomer, unassigned; (+)) [Example 37], on human 5-HT2C receptor, the Emax was 100% and the pEC50 was 9.00. Also, the negative logarithm of the Ki (pKi) in assay [1] was 9.00.
For the molecule `Cc1cccc(-c2cccc3c2OC(CN)C3)c1` (single isomer, unassigned; (+)) [Example 42, (+)-1-[7-(3-methylphenyl)-2,3-dihydro-1-benzofuran-2-yl]methanamine], on human 5-HT2C receptor, the Emax stood at 100% and the pEC50 is 6.79. In addition, in assay [1], the pKi is 7.77.
For `NCC1Cc2cccc(-c3ccsc3)c2O1` (single isomer, unassigned; (+)) [Example 45, (+)-1-(7-thien-3-yl-2,3-dihydro-1-benzofuran-2-yl)methanamine], at human 5-HT2C receptor, the Emax is 90% and the pEC50 is 8.30. Further, in assay [1], the pKi is 8.70.
The matching figures for `Cc1ccccc1-c1cccc2c1OC(CN)C2` (single isomer, unassigned; (+)) [Example 48, (+)-1-[7-(2-methylphenyl)-2,3-dihydro-1-benzofuran-2-yl]methanamine]: 100%, 8.62 and 9.52.
Take `NCC1Cc2cccc(-c3ccccc3C(F)(F)F)c2O1` (single isomer, unassigned; (+)) [Example 55, (+)-1-{7-[2-(trifluoromethyl)phenyl]-2,3-dihydro-1-benzofuran-2-yl}methanamine]: at human 5-HT2C receptor, the pEC50 was 7.32 and the “5-HT2C Function Emax (%)” value worked out at 70%. Also, the pKi in assay [1] is 8.52.
The matching figures for `Cc1cccc(C)c1-c1cccc2c1OC(CN)C2` (single isomer, unassigned; (+)) [Example 58, (+)-1-[7-(2,6-dimethylphenyl)-2,3-dihydro-1-benzofuran-2-yl]methanamine]: 6.50, 60% and 8.05.
Turning to `CC(C)c1ccccc1-c1cccc2c1OC(CN)C2` (single isomer, unassigned; (+)) [Example 62, (+)-[7-(2-isopropylphenyl)-2,3-dihydro-1-benzofuran-2-yl]methylamine], on human 5-HT2C receptor, the Emax worked out at 70% and the pEC50 is 6.89. Besides, the pKi in assay [1] was 7.40.
In the case of `NCC1Cc2cccc(-c3cccc(Cl)c3)c2O1` (single isomer, unassigned; (+)) [Example 66, (+)-1-[7-(3-chlorophenyl)-2,3-dihydro-1-benzofuran-2-yl]methanamine], at human 5-HT2C receptor, the pEC50 is 6.60 and the “5-HT2C Function Emax (%)” value worked out at 100%. Further, the pKi in assay [1] is 8.30.
Regarding `Cc1ccc(-c2cccc3c2OC(CN)C3)cc1` (single isomer, unassigned; (+)) [Example 71, (+)-1-[7-(4-methylphenyl)-2,3-dihydro-1-benzofuran-2-yl]methanamine], on human 5-HT2C receptor, the Emax is 100% and the pEC50 is 8.85. Further, the pKi in assay [1] was 9.00.

The values above are taken from patent US7435837B2, “Dihydrobenzofuranyl alkanamine derivatives and methods for using same” (Wyeth, priority 2003, dated 2008).
